What all share (type): functional
One assay relates to Staphylococcus aureus. The assay can be described thus: Antibacterial activity against Staphylococcus aureus ATCC 25923 incubated for 18 hrs by visual inspection method.
Assay [1] has as its system Staphylococcus epidermidis. The assay can be described thus: Antibacterial activity against Staphylococcus epidermidis ATCC 12228 incubated for 18 hrs by visual inspection method.
A further assay deals with Bacillus subtilis. The experiment in a line: Antibacterial activity against Bacillus subtilis ATCC 23857 incubated for 18 hrs by visual inspection method.
Assay [2] concerns Escherichia coli. The assay can be described thus: Antibacterial activity against Escherichia coli ATCC 25922 incubated for 18 hrs by visual inspection method.
Assay [3] has as its system Acinetobacter baumannii. The assay can be described thus: Antibacterial activity against Acinetobacter baumannii ATCC 19606 incubated for 18 hrs by visual inspection method.
For a further assay, the system named is Klebsiella pneumoniae. The experiment in a line: Antibacterial activity against Klebsiella pneumoniae ATCC 700603 incubated for 18 hrs by visual inspection method.
Assay [4] deals with Escherichia coli. The assay can be described thus: Antibacterial activity against ESBL Escherichia coli 1 incubated for 18 hrs by visual inspection method.
In assay [5] the test system is Escherichia coli. The experiment in a line: Antibacterial activity against ESBL Escherichia coli 2 incubated for 18 hrs by visual inspection method.
The subject of assay [6] is Escherichia coli. The assay can be described thus: Antibacterial activity against ESBL Escherichia coli 3 incubated for 18 hrs by visual inspection method.
Assay [7] concerns Escherichia coli. The assay can be described thus: Antibacterial activity against ESBL Escherichia coli 4 incubated for 18 hrs by visual inspection method.
The subject of assay [8] is Escherichia coli. The experiment in a line: Antibacterial activity against ESBL Escherichia coli 5 incubated for 18 hrs by visual inspection method.
Assay [9] deals with Acinetobacter baumannii. The assay can be described thus: Antibacterial activity against multidrug resistant Acinetobacter baumannii 1 incubated for 18 hrs by visual inspection method.
The test system of assay [10] is Acinetobacter baumannii. The assay can be described thus: Antibacterial activity against multidrug resistant Acinetobacter baumannii 2 incubated for 18 hrs by visual inspection method.
Assay [11] has as its system Acinetobacter baumannii. The experiment in a line: Antibacterial activity against multidrug resistant Acinetobacter baumannii 3 incubated for 18 hrs by visual inspection method.
Assay [12] deals with Acinetobacter baumannii. The experiment in a line: Antibacterial activity against multidrug resistant Acinetobacter baumannii 4 incubated for 18 hrs by visual inspection method.
Assay [13] concerns Acinetobacter baumannii. The assay can be described thus: Antibacterial activity against multidrug resistant Acinetobacter baumannii 5 incubated for 18 hrs by visual inspection method.

Where a SMILES comes first, the peptide text is derived from it.

MIC data for 11 compounds are collected here from ChEMBL document CHEMBL5614417, “Discovery of AMPs from random peptides via deep learning-based model and biological activity validation” (Eur J Med Chem, 2024).

In general, MIC refers to the least concentration at which growth counts as inhibited. A high value points to weaker potency. Regarding `CC[C@H](C)[C@H](NC(=O)[C@H](CCCCN)NC(=O)[C@H](Cc1c[nH]c2ccccc12)NC(=O)[C@H](C)NC(=O)[C@@H]1CCCN1C(=O)[C@H]1CCCN1C(=O)[C@@H](CC(C)C)NC(=O)[C@H](N)C(C)C)C(=O)N[C@@H](CCCCN)C(=O)N[C@@H](CCCCN)C(=O)NCC(=O)N[C@@H](Cc1ccccc1)C(=O)N[C@@H](CCC(N)=O)C(N)=O`, the MIC (against Staphylococcus aureus; in [1]; in the assay with Bacillus subtilis; against Escherichia coli [2]; with Acinetobacter baumannii [3]; in the assay on Klebsiella pneumoniae) was over 60 µg/mL throughout.

With `CC[C@H](C)[C@H](N)C(=O)N[C@H](C(=O)N[C@@H](Cc1ccccc1)C(=O)N[C@@H](CC(C)C)C(=O)N[C@H](C(=O)N[C@@H](CO)C(=O)NCC(=O)N[C@@H](Cc1ccccc1)C(=O)N[C@@H](CCCCN)C(=O)N[C@@H](CS)C(=O)N[C@@H](Cc1ccccc1)C(=O)N[C@@H](CCCCN)C(=O)NCC(N)=O)[C@@H](C)CC)C(C)C` (H-IVFLISGFKCFKG-NH2), the MIC (in the assay on Staphylococcus aureus; in assay [1]; with Bacillus subtilis; in the assay on Escherichia coli [2]; with Acinetobacter baumannii [3]; in the assay with Klebsiella pneumoniae) was over 60 µg/mL in each case.

Consider `CC[C@H](C)[C@H](NC(=O)CNC(=O)[C@@H](NC(=O)[C@H](Cc1ccccc1)NC(=O)[C@@H](NC(=O)[C@H](Cc1c[nH]cn1)NC(=O)[C@H](Cc1c[nH]c2ccccc12)NC(=O)[C@@H](NC(=O)[C@@H]1CCCN1)[C@@H](C)O)[C@@H](C)CC)[C@@H](C)CC)C(=O)N[C@@H](Cc1c[nH]c2ccccc12)C(=O)N[C@@H](CO)C(=O)N[C@@H](CS)C(=O)N[C@@H](Cc1c[nH]c2ccccc12)C(N)=O` (H-PTWHIFIGIWSCW-NH2), for which the MIC (in the assay on Staphylococcus aureus; in [1]; with Bacillus subtilis; in the assay with Escherichia coli [2]; against Acinetobacter baumannii [3]; with Klebsiella pneumoniae) was over 60 µg/mL in each case.

Turning to `CSCC[C@H](NC(=O)[C@H](Cc1c[nH]c2ccccc12)NC(=O)[C@H](CCSC)NC(=O)[C@H](Cc1c[nH]c2ccccc12)NC(=O)[C@@H](NC(=O)[C@H](Cc1c[nH]c2ccccc12)NC(=O)[C@H](Cc1c[nH]c2ccccc12)NC(=O)[C@H](CCSC)NC(=O)[C@H](CCCCN)NC(=O)[C@H](CS)NC(=O)CNC(=O)[C@H](Cc1ccccc1)NC(=O)[C@@H](N)CO)C(C)C)C(N)=O` (H-SFGCKMWWVWMWM-NH2), the MIC (with Staphylococcus aureus; in assay [1]; against Bacillus subtilis; against Escherichia coli [2]; against Acinetobacter baumannii [3]; with Klebsiella pneumoniae) was over 60 µg/mL each time.

Take `CC[C@H](C)[C@H](NC(=O)[C@H](C)NC(=O)[C@H](Cc1c[nH]c2ccccc12)NC(=O)[C@H](CCCCN)NC(=O)[C@H](C)NC(=O)CNC(=O)[C@@H](NC(=O)[C@@H](N)CO)[C@@H](C)CC)C(=O)N[C@@H](Cc1c[nH]c2ccccc12)C(=O)N[C@@H](Cc1c[nH]c2ccccc12)C(=O)N[C@@H](Cc1c[nH]c2ccccc12)C(=O)N[C@@H](CCSC)C(=O)N[C@H](C(N)=O)C(C)C` (H-SIGAKWAIWWWMV-NH2): the MIC (against Staphylococcus aureus; in assay [1]; in the assay on Bacillus subtilis; against Escherichia coli [2]; with Acinetobacter baumannii [3]; with Klebsiella pneumoniae) was over 60 µg/mL throughout.

For `CC(C)C[C@H](NC(=O)[C@H](CCCCN)NC(=O)[C@H](CS)NC(=O)[C@H](CS)NC(=O)[C@@H](NC(=O)CNC(=O)[C@@H](NC(=O)[C@H](Cc1ccccc1)NC(=O)[C@H](CCC(N)=O)NC(=O)[C@H](CS)NC(=O)[C@@H](N)Cc1c[nH]c2ccccc12)C(C)C)C(C)C)C(=O)N[C@@H](CS)C(=O)N[C@H](C(N)=O)C(C)C` (H-WCQFVGVCCKLCV-NH2), the minimal inhibitory concentration (MIC) (against Staphylococcus aureus; in assay [1]; in the assay on Bacillus subtilis; with Escherichia coli [2]; in the assay with Acinetobacter baumannii [3]; with Klebsiella pneumoniae) was over 60 µg/mL each time.

Take `CC[C@H](C)[C@H](NC(=O)[C@H](CC(C)C)NC(=O)[C@H](CS)NC(=O)[C@@H]1CCCN1C(=O)[C@H](CC(C)C)NC(=O)[C@@H](NC(=O)[C@H](CS)NC(=O)[C@H](Cc1ccccc1)NC(=O)[C@@H](N)Cc1c[nH]c2ccccc12)[C@@H](C)CC)C(=O)N[C@@H](Cc1ccccc1)C(=O)N[C@@H](CCCCN)C(=O)N[C@@H](Cc1c[nH]c2ccccc12)C(=O)N[C@@H](CCC(N)=O)C(N)=O` (H-WFCILPCLIFKWQ-NH2): the MIC (with Staphylococcus aureus; in assay [1]; with Bacillus subtilis; against Escherichia coli [2]; against Acinetobacter baumannii [3]; with Klebsiella pneumoniae) was over 60 µg/mL each time.

Turning to `CC[C@H](C)[C@H](NC(=O)[C@@H](N)Cc1c[nH]c2ccccc12)C(=O)N[C@@H](Cc1c[nH]c2ccccc12)C(=O)N[C@H](C(=O)N[C@@H](Cc1ccccc1)C(=O)N[C@@H](CCCCN)C(=O)N[C@@H](Cc1c[nH]cn1)C(=O)N[C@@H](CC(C)C)C(=O)NCC(=O)N[C@@H](CS)C(=O)N[C@@H](CCC(N)=O)C(=O)N[C@@H](CCCCN)C(=O)N[C@@H](CCC(N)=O)C(N)=O)[C@@H](C)O` (H-WIWTFKHLGCQKQ-NH2), the MIC (with Staphylococcus aureus; in assay [1]; in the assay on Bacillus subtilis; in the assay on Escherichia coli [2]; against Acinetobacter baumannii [3]; in the assay on Klebsiella pneumoniae) was over 60 µg/mL throughout.

On to `CC[C@H](C)[C@H](NC(=O)[C@H](CCCNC(=N)N)NC(=O)[C@H](Cc1c[nH]c2ccccc12)NC(=O)[C@@H](NC(=O)[C@H](Cc1c[nH]cn1)NC(=O)[C@H](Cc1c[nH]c2ccccc12)NC(=O)[C@@H](N)Cc1c[nH]c2ccccc12)[C@@H](C)CC)C(=O)N[C@@H](CO)C(=O)N[C@@H](CCSC)C(=O)N[C@@H](Cc1c[nH]c2ccccc12)C(=O)N[C@@H](CCSC)C(=O)N[C@@H](CS)C(=O)NCC(N)=O` (H-WWHIWRISMWMCG-NH2), for which the MIC (in the assay with Staphylococcus aureus; in assay [1]; against Bacillus subtilis; in the assay on Escherichia coli [2]; against Acinetobacter baumannii [3]; in the assay with Klebsiella pneumoniae) was over 60 µg/mL each time.

As to GRAMICIDIN, the MIC was 1.88 µg/mL with Staphylococcus aureus, 3.75 µg/mL in assay [1] and 3.75 µg/mL with Bacillus subtilis.

In the case of POLYMYXIN B, the MIC with Escherichia coli [2], against Acinetobacter baumannii [3], against Klebsiella pneumoniae, against Escherichia coli [4], with Escherichia coli [5] and with Escherichia coli [6] was 1.88 µg/mL throughout. In addition, the MIC against Escherichia coli [7], in the assay with Escherichia coli [8], in the assay with Acinetobacter baumannii [9], against Acinetobacter baumannii [10], against Acinetobacter baumannii [11] and in the assay with Acinetobacter baumannii [12] was 1.88 µg/mL in each case. This compound yielded an MIC against Acinetobacter baumannii [13] of 1.88 µg/mL.
